Patent publication US4971968A, “Pyridazinone derivatives and salts thereof” (Mitsubishi Kasei Corporation, priority 1983, dated 1990)

Columns and labels:
Anesthetized dog = assay: Effects on myocardial contraction in anesthetized dogs; type: in vivo, dog (male and female mongrel dogs); conditions: for Anesthetized dog, CO (cardiac output) increase: aortic blood flow as index
Description: 3. Effects on myocardial contraction in anesthetized dogs
Male and female mongrel dogs with body weight of 8-15 kg were used. A dog was anesthetized by intraveneous injection of 30 mg/kg of sodium pentobarbital and practiced artificial respiration. The dog was thoractomized between fourth and fifth costa which was cut off. The pericardium was incised to expose heart. Blood flow through the aorta, which was measured with an electromagnetic blood flowmeter whose probe was attached to the ascending aorta, was used as an approximate index of cardiac output (CO). Left ventricular pressure (LVP) was measured with a Miller Catheter-tip pressure transducer and the first derivative of the LVP (dP/dt) was measured with a differentiater. Contraction of right ventricular muscle (Cont) was determined with a strain-gauge attached to the wall. Systemic blood pressure was measured from the left femoral artery. Heart rate was measured with electrocardiogram (lead II) and a cardiotachometer. The compound dissolved in a solvent was administered intravenously from a left femoral vein.

papillary muscle of dog = assay: Effect on contraction of an isolated and cross-circulated papillary muscle preparation of the dog; conditions: Canis lupus familiaris, read-out: Contraction of papillary muscle of dog, increase; for activation at 0.01 mg: 10 μg i.a.; for activation at 0.03 mg: 30 μg i.a.
Description: 1. Effect on contraction of an isolated and cross-circulated papillary muscle preparation of the dog
An isolated and cross-circulated papillary muscle preparation of the dog was prepared by Endo and Hashimoto's method (referred to American Journal of Physiology, 218, 1459-1463, 1970). The effect of the compound was measured by closely intraarterially injecting the compound dissolved in a solvent to the papillary muscle for the purpose of recording its effect on contraction of papillary muscle.

[1] = test system: left atrium of guinea pig; assay: Effect on contraction of an isolated left atrium of the guinea pig; conditions: Cavia porcellus, read-out: Contraction of left atrium of guinea pig, increase; for activation at 30 µg/mL: 3 × 10^-5 g/ml; for activation at 10 µg/mL: 10^-5 g/ml
Description: 2. Effect on contraction of an isolated left atrium of the guinea pig
A left atrium was isolated from a male guinea pig with 200-300 g of body weight soon after striking on the back of its head. The mitral orifice was fixed to the bottom of an organ bath filled with 30 ml of Krebs-Henseleit solution maintained at 35° C. A gas mixture comprising 95% of O2 and 5% of CO2 was passed through the Krebs-Henseleit solution in the organ bath. Isometric tension was measured by connecting a left auricle of heart and a transducer by a yarn. A resting tension of 0.5 g was given to the atrium, which was then electrically driven with square pulses with duration of 1 msec and voltage of 1.5 times as much as threshold in the rate of 2 Hz via dipolar platinum electrodes.
After stabilizing the atrium for 30 minutes from its preparation, the compound dissolved in a solvent was added to the organ bath to measure its effect.

[2] = Acute toxicity (LD50) for intravenous and oral administration in male mice; conditions: mouse, in vivo
Description: Acute toxicity (LD50) for intravenous and oral administration in male mice was determined by the method of […] and Wilcoxon (referred to Journal of Pharmacology and Experimental Therapeutics, 96, 99-113, 1949).

CC1CC(c2ccc(Nc3ccncc3)cc2)=NNC1=O (stereo not drawn) [6-[4-(4'-pyridyl)aminophenyl]-4-methyl-4,5-dihydro-3(2H)pyridazinone]
Anesthetized dog, Cont (contraction of right ventricular muscle) increase (Anesthetized dog; 30 μg/kg i.v.): 21.6%
Anesthetized dog, dP/dt max increase (Anesthetized dog; 30 μg/kg i.v.): 29.1%
Anesthetized dog, CO (cardiac output) increase (Anesthetized dog; 30 μg/kg i.v.): 8.6%
Anesthetized dog, Cont (contraction of right ventricular muscle) increase (Anesthetized dog; 100 μg/kg i.v.): 64.0%
Anesthetized dog, dP/dt max increase (Anesthetized dog; 100 μg/kg i.v.): 64.7%
Anesthetized dog, CO (cardiac output) increase (Anesthetized dog; 100 μg/kg i.v.): 26.7%
activation at 0.01 mg (papillary muscle of dog): 22.6%
activation at 0.03 mg (papillary muscle of dog): 50%
activation at 30 µg/mL [1]: 109%
activation at 10 µg/mL [1]: 85.9%

O=C1CCC(c2ccc(Nc3ncccn3)cc2)=NN1 [6-[4-(2'-pyrimidinyl)aminophenyl]-4,5-dihydro-3(2H)-pyridazinone]
activation at 0.03 mg (papillary muscle of dog): 5.7%
activation at 0.1 mg (papillary muscle of dog; 100 μg i.a.): 15.9%
activation at 30 µg/mL [1]: 66%
activation at 10 µg/mL [1]: 42%

O=C1CCC(c2ccc(Nc3ccncc3)cc2)=NN1 [6-[4-(4'-pyridyl)aminophenyl]-4,5-dihydro-3(2H)-pyridazinone]
Anesthetized dog, Cont (contraction of right ventricular muscle) increase (Anesthetized dog; 10 μg/kg i.v.): 23%
Anesthetized dog, dP/dt max increase (Anesthetized dog; 10 μg/kg i.v.): 45%
Anesthetized dog, CO (cardiac output) increase (Anesthetized dog; 10 μg/kg i.v.): 13%
Anesthetized dog, Cont (contraction of right ventricular muscle) increase (Anesthetized dog; 30 μg/kg i.v.): 57%
Anesthetized dog, dP/dt max increase (Anesthetized dog; 30 μg/kg i.v.): 93%
Anesthetized dog, CO (cardiac output) increase (Anesthetized dog; 30 μg/kg i.v.): 28%
activation at 0.01 mg (papillary muscle of dog): 13.2%
activation at 0.03 mg (papillary muscle of dog): 15.4%
activation at 30 µg/mL [1]: 138%
activation at 10 µg/mL [1]: 115%
LD50 ([2]; iv): 97 mg/kg
LD50 ([2]; po): 341 mg/kg

CC1CC(=O)NN=C1c1ccc(Nc2ccncc2)cc1 (stereo not drawn) [6-[4-(4'-pyridyl)aminophenyl]-5-methyl-4,5-dihydro-3(2H)pyridazinone]
Anesthetized dog, Cont (contraction of right ventricular muscle) increase (Anesthetized dog; 3 μg/kg i.v.): 13.3%
Anesthetized dog, dP/dt max increase (Anesthetized dog; 3 μg/kg i.v.): 14.4%
Anesthetized dog, CO (cardiac output) increase (Anesthetized dog; 3 μg/kg i.v.): 14.4%
Anesthetized dog, Cont (contraction of right ventricular muscle) increase (Anesthetized dog; 10 μg/kg i.v.): 75.9%
Anesthetized dog, dP/dt max increase (Anesthetized dog; 10 μg/kg i.v.): 73.8%
Anesthetized dog, CO (cardiac output) increase (Anesthetized dog; 10 μg/kg i.v.): 26.7%
activation at 0.003 mg (papillary muscle of dog; 3 μg i.a.): 28.6%
activation at 0.01 mg (papillary muscle of dog): 38.7%
activation at 30 µg/mL [1]: 97.9%
activation at 10 µg/mL [1]: 86.6%
